Test results from ChEMBL document CHEMBL1150087, “Structural Revision of Physalin H Isolated from Physalis angulata” (1995).
Calls of active or inactive are those of the source. The rule behind the calls is not given here.

System: HeLa
Test: Cytotoxicity against human HeLa cells
Type: functional

**Q.** C[C@@]12C[C@H]3OC(=O)[C@@H]1CO[C@@]14O[C@]5([C@H]2C1=O)[C@@](O)(CC[C@H]1[C@H]4C[C@@H](O)[C@@]2(O)CC=CC(=O)[C@]12C)C(=O)O[C@@]35C was tested. Which ID50 did it give?
**A.** inactive
